Experimental data from patent US20220378756A1, “ACTIVATING PYRUVATE KINASE R” (FORMA Therapeutics, Inc., priority 2019, published 2022).

System: 2,3-DPG, ATP and p50 in blood
Assay: Phase 1 SAD/MAD, healthy volunteers: pharmacodynamics
Type: in vivo, human
Conditions: for Median Percentage Change in 2,3-DPG Levels: HV
Source text: This is a first-in-human (FIH), Phase 1 study of Compound 1 that will characterize the safety, PK, and PD of Compound 1 after a single dose and after repeated dosing first in healthy adult volunteers and then in adolescents or adults with sickle cell disease. Initially, a dose range of Compound 1 in single ascending dose (SAD) escalation cohorts will be explored in healthy subjects. Enrollment of healthy subjects into 2-week multiple ascending dose (MAD) escalation cohorts will be initiated once the safety and PK from at least two SAD cohorts is available to inform the doses for the 2-week MAD portion of the study. The MAD cohorts will then run in parallel to the single dose cohorts. A single dose cohort is planned to understand food effects (FE) on the PK of Compound 1. […] Multiple dose studies in SCD subjects will then be initiated upon completion of MAD studies in healthy volunteers. Compound 1 will be administered in 25 mg and 100 mg tablets delivered orally.
In this study, SAD/MAD cohorts are randomized (3 to 1) to receive Compound 1 or placebo (P). Compound 1 was evaluated first in 4 healthy SAD cohorts and 4 healthy MAD (14-day dosing period) cohorts. Based on the safety, and PK/PD profile from HS, Compound 1 is then evaluated in 1 SCD SAD cohort and 2 SCD MAD cohorts. Specifically, based on the safety and pharmacokinetic/pharmacodynamics (PK/PD) profile in healthy volunteer studies, Compound 1 is evaluated in patients (pts) with SCD, first in a single dose (SD or SAD) cohort and then in multiple-dose (MD or MAD) cohorts (14-day and 12-week). Safety assessments include AEs, vital signs, ECGs and laboratory parameters. PK/PD blood sampling was performed on Day 1 (SAD/MAD) and Day 14 (MAD) and up to 72 h after the last dose and at the end-of-study visit. PD parameters included 2,3-DPG, ATP, and p50 in all cohorts with additional PD studies (including oxygen scan) performed only in the SCD cohorts. PD parameters included 2,3-DPG, ATP, p50, RBC deformability with controlled deoxygenation and reoxygenation (Lorrca® oxygen scan) and varying osmolality (Lorrca® osmoscan)). To maintain study blind, pt identifiers were removed when needed.
Four healthy SAD cohorts were evaluated at doses of 200, 400, 700, and 1000 mg, and four healthy MAD cohorts received 200 to 600 mg total daily doses for 14 days at QD or BID dosing (100 mg BID, 200 mg BID, 300 mg BID, and 400 mg QD). In the food effect (FE) cohort, 10 healthy subjects received 200 mg of Compound 1 QD with and without food.
In the SAD cohorts, the subjects' blood 2,3-DPG levels were measured periodically after dosing by a qualified LC-MS/MS method for the quantitation of 2,3-DPG in blood. Decreased 2,3-DPG blood levels were observed 6 hours following a single dose of Compound 1 at all dose levels (earlier timepoints were not collected). Maximum decreases in 2,3-DPG levels generally occurred ˜24 hours after the first dose with the reduction sustained ˜48-72 hr postdose. Table 16 reports the median percentage change in 2,3-DPG blood levels, relative to baseline, measured over time in healthy volunteers after a single dose of Compound 1 (200 mg, 400 mg, 700 mg, or 1000 mg) or placebo. Accordingly, the median reduction in the concentration of 2,3-DPG, relative to baseline, was at least about […] at all dose levels tested 24 hours after administration of the single dose.
In the MAD cohorts, the subjects' blood 2,3-DPG levels were measured periodically after dosing by a qualified LC-MS/MS method for the quantitation of 2,3-DPG in blood. The maximum decrease in 2,3-DPG on Day 14 was 55% from baseline (median). […] Table 18 reports the median percentage change in 2,3-DPG blood levels, relative to baseline, measured over time after the first dose on days 1 and 14 in healthy volunteers who received daily doses of Compound 1 (100 mg BID, 200 mg BID, or 300 mg BID) or placebo for 14 days. […]

[1] = MAD, N = 36, all doses and timepoints
[2] = SAD, N = 24, all doses and timepoints

## O=C([C@H](CO)c1ccccc1)N1CC2=C(C1)CN(S(=O)(=O)c1cnc3c(c1)OCCO3)C2 (single isomer, unassigned) [Compound 1]
300 mg BID, Day 1, 16 h after first daily dose
  Median Percentage Change in 2,3-DPG Levels: −40.7%
300 mg BID, Day 1, 24 h after first daily dose
  Median Percentage Change in 2,3-DPG Levels: −50.8%
300 mg BID, Day 14, 0 h after first daily dose
  Median Percentage Change in 2,3-DPG Levels: −59.4%
300 mg BID, Day 14, 6 h after first daily dose
  Median Percentage Change in 2,3-DPG Levels: −53.0%
300 mg BID, Day 14, 8 h after first daily dose
  Median Percentage Change in 2,3-DPG Levels: −54.2%
300 mg BID, Day 14, 12 h after first daily dose
  Median Percentage Change in 2,3-DPG Levels: −55.3%
300 mg BID, Day 14, 16 h after first daily dose
  Median Percentage Change in 2,3-DPG Levels: −52.4%
300 mg BID, Day 14, 24 h after first daily dose
  Median Percentage Change in 2,3-DPG Levels: −52.1%
300 mg BID, Day 14, 48 h after first daily dose
  Median Percentage Change in 2,3-DPG Levels: −44.5%
300 mg BID, Day 14, 72 h after first daily dose
  Median Percentage Change in 2,3-DPG Levels: −32.9%
Single dose 200 mg, 0 h after dose
  Median Percentage Change in 2,3-DPG Levels: 0.0%
Single dose 200 mg, 6 h after dose
  Median Percentage Change in 2,3-DPG Levels: −18%
Single dose 200 mg, 8 h after dose
  Median Percentage Change in 2,3-DPG Levels: −17%
Single dose 200 mg, 12 h after dose
  Median Percentage Change in 2,3-DPG Levels: −25%
Single dose 200 mg, 16 h after dose
  Median Percentage Change in 2,3-DPG Levels: −33%
Single dose 200 mg, 24 h after dose
  Median Percentage Change in 2,3-DPG Levels: −31%
Single dose 200 mg, 36 h after dose
  Median Percentage Change in 2,3-DPG Levels: −33%
Single dose 200 mg, 48 h after dose
  Median Percentage Change in 2,3-DPG Levels: −29%
Single dose 200 mg, 72 h after dose
  Median Percentage Change in 2,3-DPG Levels: −18%
Single dose 400 mg, 0 h after dose
  Median Percentage Change in 2,3-DPG Levels: 0.0%
Single dose 400 mg, 6 h after dose
  Median Percentage Change in 2,3-DPG Levels: −23%
Single dose 400 mg, 8 h after dose
  Median Percentage Change in 2,3-DPG Levels: −29%
Single dose 400 mg, 12 h after dose
  Median Percentage Change in 2,3-DPG Levels: −40%
Single dose 400 mg, 16 h after dose
  Median Percentage Change in 2,3-DPG Levels: −35%
Single dose 400 mg, 24 h after dose
  Median Percentage Change in 2,3-DPG Levels: −39%
Single dose 400 mg, 36 h after dose
  Median Percentage Change in 2,3-DPG Levels: −38%
Single dose 400 mg, 48 h after dose
  Median Percentage Change in 2,3-DPG Levels: −31%
Single dose 400 mg, 72 h after dose
  Median Percentage Change in 2,3-DPG Levels: −30%
Single dose 700 mg, 0 h after dose
  Median Percentage Change in 2,3-DPG Levels: 0.0%
Single dose 700 mg, 6 h after dose
  Median Percentage Change in 2,3-DPG Levels: −29%
Single dose 700 mg, 8 h after dose
  Median Percentage Change in 2,3-DPG Levels: −28%
Single dose 700 mg, 12 h after dose
  Median Percentage Change in 2,3-DPG Levels: −41%
Single dose 700 mg, 16 h after dose
  Median Percentage Change in 2,3-DPG Levels: −46%
Single dose 700 mg, 24 h after dose
  Median Percentage Change in 2,3-DPG Levels: −49%
Single dose 700 mg, 36 h after dose
  Median Percentage Change in 2,3-DPG Levels: −46%
Single dose 700 mg, 48 h after dose
  Median Percentage Change in 2,3-DPG Levels: −48%
Single dose 700 mg, 72 h after dose
  Median Percentage Change in 2,3-DPG Levels: −33%
Single dose 1000 mg, 0 h after dose
  Median Percentage Change in 2,3-DPG Levels: 0.0%
Single dose 1000 mg, 6 h after dose
  Median Percentage Change in 2,3-DPG Levels: −20%
Single dose 1000 mg, 8 h after dose
  Median Percentage Change in 2,3-DPG Levels: −31%
Single dose 1000 mg, 12 h after dose
  Median Percentage Change in 2,3-DPG Levels: −44%
Single dose 1000 mg, 16 h after dose
  Median Percentage Change in 2,3-DPG Levels: −50%
Single dose 1000 mg, 24 h after dose
  Median Percentage Change in 2,3-DPG Levels: −48%
Single dose 1000 mg, 36 h after dose
  Median Percentage Change in 2,3-DPG Levels: −47%
Single dose 1000 mg, 48 h after dose
  Median Percentage Change in 2,3-DPG Levels: −47%
Single dose 1000 mg, 72 h after dose
  Median Percentage Change in 2,3-DPG Levels: −21%
MAD study
  mean maximum reduction in the concentration of 2,3-DPG: at least 50%
  mean maximum reduction in the concentration of 2,3-DPG, range: 46.1-63.6%
[1]
  Mean Maximum Percent Change from Baseline, 2,3-DPG: −56.3%
  Mean Maximum Percent Change from Baseline, ATP: 68.5%
SAD study
  mean maximum reduction in the concentration of 2,3-DPG: at least 40%
  mean maximum reduction in the concentration of 2,3-DPG, range: 35.4-56.1%
[2]
  Mean Maximum Percent Change from Baseline, 2,3-DPG: −46.8%
  Mean Maximum Percent Change from Baseline, ATP: 24.4%
